# Measurements taken from patent US12435044B2, “Pyridazinone herbicides and pyridazinone intermediates used to prepare a herbicide” (FMC Corporation, priority 2018, dated 2025).
# Tests used:
# Assay in all cases: Test C pre-/postemergence greenhouse test
# Format in all cases: in vivo
# [1] = test system: foxtail, giant (Setaria faberii); conditions: scale 0 to 100
# How it was run: (§1)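 Formulation: non-phytotoxic solvent mixture including surfactant. Preemergence on seeds in silt loam; postemergence on plants 2 to 18 cm tall in peat-based potting medium. Controls held alongside; visual evaluation at 13 to 21 d, 0 = no effect, 100 = complete control.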
# [2] = test system: lambsquarters (Chenopodium album); conditions: Preemergence, scale 0 to 100
# How it was run: as §1
# oat, wild (Avena fatua) = conditions: scale 0 to 100
# How it was run: as §1
# [3] = test system: surinam grass (Brachiaria decumbens); conditions: Preemergence, scale 0 to 100
# How it was run: as §1
structure (smiles),measurement,setting,value
Cc1ccc2ccc(F)cc2c1-c1c(O)c(Cl)nn(C)c1=O [Cpd. No. 21],"Plant response rating, Foxtail, Giant","[1]; Postemergence, 16 g ai/ha",70
same,"Plant response rating, Foxtail, Giant","[1]; Postemergence, 31 g ai/ha",85
same,"Plant response rating, Foxtail, Giant","[1]; Postemergence, 62 g ai/ha",90
same,"Plant response rating, Foxtail, Giant","[1]; Postemergence, 125 g ai/ha",93
same,"Plant response rating, Foxtail, Giant","[1]; Preemergence, 31 g ai/ha",85
same,"Plant response rating, Foxtail, Giant","[1]; Preemergence, 61 g ai/ha",10
same,"Plant response rating, Foxtail, Giant","[1]; Preemergence, 62 g ai/ha",98
same,"Plant response rating, Foxtail, Giant","[1]; Preemergence, 125 g ai/ha",100
same,"Plant response rating, Lambsquarters",[2]; 31 g ai/ha,70
same,"Plant response rating, Lambsquarters",[2]; 61 g ai/ha,75
same,"Plant response rating, Lambsquarters",[2]; 62 g ai/ha,85
same,"Plant response rating, Lambsquarters",[2]; 125 g ai/ha,98
same,"Plant response rating, Oat, Wild","oat, wild (Avena fatua); Postemergence, 16 g ai/ha",95
same,"Plant response rating, Oat, Wild","oat, wild (Avena fatua); Postemergence, 31 g ai/ha",98
same,"Plant response rating, Oat, Wild","oat, wild (Avena fatua); Postemergence, 62 g ai/ha",99
same,"Plant response rating, Oat, Wild","oat, wild (Avena fatua); Postemergence, 125 g ai/ha",100
same,"Plant response rating, Oat, Wild","oat, wild (Avena fatua); Preemergence, 31 g ai/ha",70
same,"Plant response rating, Oat, Wild","oat, wild (Avena fatua); Preemergence, 61 g ai/ha",45
same,"Plant response rating, Oat, Wild","oat, wild (Avena fatua); Preemergence, 62 g ai/ha",85
same,"Plant response rating, Oat, Wild","oat, wild (Avena fatua); Preemergence, 125 g ai/ha",85
same,"Plant response rating, Surinam Grass",[3]; 31 g ai/ha,100
same,"Plant response rating, Surinam Grass",[3]; 61 g ai/ha,80
same,"Plant response rating, Surinam Grass",[3]; 62 g ai/ha,100
same,"Plant response rating, Surinam Grass",[3]; 125 g ai/ha,100
